Measurements from US9657057B2, “Dipeptide and tripeptide epoxy ketone protease inhibitors” (Onyx Therapeutics, Inc., priority 2013, dated 2017).
≈ marks a conversion by molar mass, not a printed value. Where “and” joins values, the source holds several entries; their conditions need not be identical. Equal entries are not always repeated.

Assays:
LMP7 = target: T1, LMP7 (Homo sapiens, UniProt P20618+P28062); experiment: ProCISE proteasome subunit assay, LMP7; type: biochemical
T1 construct: endogenous in cells; host or cells: MOLT-4
In short: (§1)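 MOLT-4 cell lysate was incubated with compound for 1 h at 25° C, then a subunit-binding probe was applied; probe-bound subunits were pulled down on streptavidin beads after guanidine denaturation and detected with subunit-specific antibodies by HRP chemiluminescence. Signal was normalized to protein and expressed as percent of DMSO control to fit IC50.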

β5 = target: T2, β5 (Homo sapiens, UniProt P20618+P28074); experiment: ProCISE proteasome subunit assay, β5; type: biochemical
T2 construct: endogenous in cells; host or cells: MOLT-4
In short: as §1

Solubility pH 7 = type: physicochemical; settings: pH 7, aqueous buffer
[1] = target: i20S (20S immunoproteasome) (Homo sapiens, UniProt P20618+P28062); experiment: 20S proteasome assay, chymotrypsin-like activity (LLVY), i20S; type: biochemical; settings: LLVY i20S Hu 1 h CONT: IC50 (nM), succinyl-Leu-Leu-Val-Tyr-AMC
Description: (§2) Assay buffer consisted of TE buffer [20 mmol/L Tris (pH 8.0), 0.5 mmol/L EDTA] with (20S) or without (cell lysate) 0.03% SDS. Reactions were initiated by enzyme or lysate addition and monitored for AMC product formation at 27jC with a plate-based spectofluorometer (Tecan).

[2] = target: c20S (constitutive 20S proteasome) (Homo sapiens, UniProt P20618+P28074); experiment: 20S proteasome assay, chymotrypsin-like activity (LLVY), c20S; type: biochemical; settings: LLVY c20S Hu 1 h CONT: IC50 (nM), succinyl-Leu-Leu-Val-Tyr-AMC
Description: as §2

SMILES | IC50 (LMP7; MOLT4 lysate Hu 1 h) [nM] | IC50 (β5; MOLT4 lysate Hu 1 h) [nM] | solubility (Solubility pH 7) [mg/mL] | IC50 [1] | IC50 [2] | IC50 (LMP7; ProCISE LMP7 MOLT4 lysate Hu 1 h CONT: IC50 (nM)) [nM] | IC50 (β5; ProCISE beta5 MOLT4 lysate Hu 1 h CONT: IC50 (nM)) [nM]
COc1ccc(C[C@H](NC(=O)[C@@H](C)NC(=O)c2cccnc2)C(=O)N[C@@H](CC2CCCC2)C(=O)[C@@]2(C)CO2)cc1 [Compound C-2032, N—((R)-1-(((S)-1-(((S)-3-cyclopentyl-1-((R)-2-methyloxiran-2-yl)-1-oxopropan-2-yl)amino)-3-(4-methoxyphenyl)-1-oxopropan-2-yl)amino)-1-oxopropan-2-yl)nicotinamide] | 452 | 4050 | 0.172 (≈ 313 µM) | 107 nM | 1890 nM |  | 
COc1ccc(C[C@H](NC(=O)[C@@H](C)NC(=O)c2ccncc2)C(=O)N[C@@H](CC2CCCC2)C(=O)[C@@]2(C)CO2)cc1 [Compound C-2033, N—((R)-1-(((S)-1-(((S)-3-cyclopentyl-1-((R)-2-methyloxiran-2-yl)-1-oxopropan-2-yl)amino)-3-(4-methoxyphenyl)-1-oxopropan-2-yl)amino)-1-oxopropan-2-yl)isonicotinamide] | 46700 | > 250000 | 0.165 (≈ 299 µM) | 1450 nM | 10100 nM |  | 
COc1ccc(C[C@H](NC(=O)[C@@H](C)NC(=O)C2=CCCC2)C(=O)N[C@@H](CC2CCCC2)C(=O)[C@@]2(C)CO2)cc1 [Compound C-2037, N—((R)-1-(((S)-1-(((S)-3-cyclopentyl-1-((R)-2-methyloxiran-2-yl)-1-oxopropan-2-yl)amino)-3-(4-methoxyphenyl)-1-oxopropan-2-yl)amino)-1-oxopropan-2-yl)cyclopent-1-enecarboxamide] | 466 | 9630 | 0.0036 (≈ 6.67 µM) | 891 nM | 6080 nM |  | 
COc1ccc(C[C@H](NC(=O)[C@@H](C)NC(=O)c2nc3ccccc3n2C)C(=O)N[C@@H](CC2CCCC2)C(=O)[C@@]2(C)CO2)cc1 [Compound C-2038, N—((R)-1-(((S)-1-(((S)-3-cyclopentyl-1-((R)-2-methyloxiran-2-yl)-1-oxopropan-2-yl)amino)-3-(4-methoxyphenyl)-1-oxopropan-2-yl)amino)-1-oxopropan-2-yl)-1-methyl-1H-benzo[d]imidazole-2-carboxamide] | 286 | 2700 | 0.0018 (≈ 2.98 µM) | 722 nM and 649 nM | 3550 nM and 7630 nM |  | 
COc1ccc(C[C@H](NC(=O)[C@@H](C)NC(=O)C[C@@H](C)O)C(=O)N[C@@H](CC2CCCC2)C(=O)[C@@]2(C)CO2)cc1 [Compound C-2042, (R)—N—((R)-1-(((S)-1-(((S)-3-cyclopentyl-1-((R)-2-methyloxiran-2-yl)-1-oxopropan-2-yl)amino)-3-(4-methoxyphenyl)-1-oxopropan-2-yl)amino)-1-oxopropan-2-yl)-3-hydroxybutanamide] | 621 | 5920 | 1.83 (≈ 3450 µM) | 336 nM | 9450 nM |  | 
COc1ccc(C[C@H](NC(=O)[C@@H](C)NC(=O)C[C@H](C)O)C(=O)N[C@@H](CC2CCCC2)C(=O)[C@@]2(C)CO2)cc1 [Compound C-2043, (S)—N—((R)-1-(((S)-1-(((S)-3-cyclopentyl-1-((R)-2-methyloxiran-2-yl)-1-oxopropan-2-yl)amino)-3-(4-methoxyphenyl)-1-oxopropan-2-yl)amino)-1-oxopropan-2-yl)-3-hydroxybutanamide] | 593 | 11000 | 2.38 (≈ 4480 µM) | 271 nM | 15100 nM |  | 
COc1ccc(C[C@H](NC(=O)[C@@H](CN2CCOCC2)NC(=O)c2cc(C)no2)C(=O)N[C@@H](CC2CCCC2)C(=O)[C@@]2(C)CO2)cc1 [Compound C-2045, N—((R)-1-(((S)-1-(((S)-3-cyclopentyl-1-((R)-2-methyloxiran-2-yl)-1-oxopropan-2-yl)amino)-3-(4-methoxyphenyl)-1-oxopropan-2-yl)amino)-3-morpholino-1-oxopropan-2-yl)-3-methylisoxazole-5-carboxamide] | 220 | 2940 | 0.16 (≈ 250 µM) | 102 nM | 1290 nM |  | 
COc1ccc(C[C@H](NC(=O)[C@@H](C)NC(=O)C2=C(C)c3ccccc3C2)C(=O)N[C@@H](Cc2ccccc2)C(=O)[C@@]2(C)CO2)cc1 [Compound C-2048, N—((R)-1-(((S)-3-(4-methoxyphenyl)-1-(((S)-1-((R)-2-methyloxiran-2-yl)-1-oxo-3-phenylpropan-2-yl)amino)-1-oxopropan-2-yl)amino)-1-oxopropan-2-yl)-3-methyl-1H-indene-2-carboxamide] |  |  | 0.0014 (≈ 2.3 µM) | 55.2 nM | 411 nM | 48.6 | 379
COc1ccc(C[C@H](NC(=O)[C@@H](C)NC(=O)CC(C)(O)C(F)(F)F)C(=O)N[C@@H](CC2CCCC2)C(=O)[C@@]2(C)CO2)cc1 (stereo partly drawn) [Compound C-2054, N—((R)-1-(((S)-1-(((S)-3-cyclopentyl-1-((R)-2-methyloxiran-2-yl)-1-oxopropan-2-yl)amino)-3-(4-methoxyphenyl)-1-oxopropan-2-yl)amino)-1-oxopropan-2-yl)-4,4,4-trifluoro-3-hydroxy-3-methylbutanamide] | 75 | 670 | 0.122 (≈ 204 µM) | 55 nM | 723 nM |  | 

Continued by falling IC50 (LMP7; MOLT4 lysate Hu 1 h), values first:

IC50 (LMP7; MOLT4 lysate Hu 1 h) [nM] | IC50 (β5; MOLT4 lysate Hu 1 h) [nM] | solubility (Solubility pH 7) [mg/mL] | IC50 [1] | IC50 [2] | IC50 (LMP7; ProCISE LMP7 MOLT4 lysate Hu 1 h CONT: IC50 (nM)) [nM] | IC50 (β5; ProCISE beta5 MOLT4 lysate Hu 1 h CONT: IC50 (nM)) [nM] | SMILES
75 | 3750 | 0.0003 (≈ 0.499 µM) | 624 nM | 4610 nM |  |  | COc1ccc(C[C@H](NC(=O)[C@@H](C)NC(=O)C2=C(C)c3ccccc3C2)C(=O)N[C@@H](CC2CCCC2)C(=O)[C@@]2(C)CO2)cc1 [Compound C-2040, N—((R)-1-(((S)-1-(((S)-3-cyclopentyl-1-((R)-2-methyloxiran-2-yl)-1-oxopropan-2-yl)amino)-3-(4-methoxyphenyl)-1-oxopropan-2-yl)amino)-1-oxopropan-2-yl)-3-methyl-1H-indene-2-carboxamide]
71 | 534 | 2.45 (≈ 4360 µM) | 15.9 nM | 246 nM |  |  | COc1ccc(C[C@H](NC(=O)[C@@H](C)NC(=O)CC(C)(C)O)C(=O)N[C@@H](CC2CCCC2)C(=O)[C@@]2(C)CO2)cc1O [Compound C-2059, N—((R)-1-(((S)-1-(((S)-3-cyclopentyl-1-((R)-2-methyloxiran-2-yl)-1-oxopropan-2-yl)amino)-3-(3-hydroxy-4-methoxyphenyl)-1-oxopropan-2-yl)amino)-1-oxopropan-2-yl)-3-hydroxy-3-methylbutanamide]
67.1 | 595 | 6.16 (≈ 10400 µM) | 49.2 nM | 521 nM |  |  | C[C@@H](NC(=O)CC(C)(C)O)C(=O)N[C@@H](Cc1ccc(S(C)(=O)=O)cc1)C(=O)N[C@@H](CC1CCCC1)C(=O)[C@@]1(C)CO1 [Compound C-2050, N—((R)-1-(((S)-1-(((S)-3-cyclopentyl-1-((R)-2-methyloxiran-2-yl)-1-oxopropan-2-yl)amino)-3-(4-(methylsulfonyl)phenyl)-1-oxopropan-2-yl)amino)-1-oxopropan-2-yl)-3-hydroxy-3-methylbutanamide]
54.3 | 883 | 0.241 (≈ 430 µM) | 34 nM | 459 nM |  |  | CC[C@](C)(O)CC(=O)N[C@H](C)C(=O)N[C@@H](Cc1ccc(OC)cc1)C(=O)N[C@@H](CC1CCCC1)C(=O)[C@@]1(C)CO1 [Compound C-2051, (S)—N—((R)-1-(((S)-1-(((S)-3-cyclopentyl-1-((R)-2-methyloxiran-2-yl)-1-oxopropan-2-yl)amino)-3-(4-methoxyphenyl)-1-oxopropan-2-yl)amino)-1-oxopropan-2-yl)-3-hydroxy-3-methylpentanamide]
52.2 | 291 | 3.73 (≈ 6730 µM) | 28.9 nM | 191 nM |  |  | COc1ccc(C[C@H](NC(=O)[C@@H](C)NC(=O)CC(C)(C)O)C(=O)N[C@@H](Cc2ccccc2)C(=O)[C@@]2(C)CO2)cc1 [Compound C-2056, 3-hydroxy-N—((R)-1-(((S)-3-(4-methoxyphenyl)-1-(((S)-1-((R)-2-methyloxiran-2-yl)-1-oxo-3-phenylpropan-2-yl)amino)-1-oxopropan-2-yl)amino)-1-oxopropan-2-yl)-3-methylbutanamide]
38.5 | 560 | 0.16 (≈ 286 µM) | 10.8 nM | 316 nM |  |  | CC[C@@](C)(O)CC(=O)N[C@H](C)C(=O)N[C@@H](Cc1ccc(OC)cc1)C(=O)N[C@@H](CC1CCCC1)C(=O)[C@@]1(C)CO1 [Compound C-2052, (R)—N—((R)-1-(((S)-1-(((S)-3-cyclopentyl-1-((R)-2-methyloxiran-2-yl)-1-oxopropan-2-yl)amino)-3-(4-methoxyphenyl)-1-oxopropan-2-yl)amino)-1-oxopropan-2-yl)-3-hydroxy-3-methylpentanamide]
13.2 | 21.1 | 0.0031 (≈ 4.92 µM) | 4.6 nM | 15.3 nM |  |  | COc1ccc(C[C@H](NC(=O)[C@@H](NC(=O)OCc2ccccc2)C2COC2)C(=O)N[C@@H](Cc2ccccc2)C(=O)[C@@]2(C)CO2)cc1 [Compound C-2035, benzyl ((S)-2-(((S)-3-(4-methoxyphenyl)-1-(((S)-1-((R)-2-methyloxiran-2-yl)-1-oxo-3-phenylpropan-2-yl)amino)-1-oxopropan-2-yl)amino)-1-(oxetan-3-yl)-2-oxoethyl)carbamate]
